Test results: patent publication EP1285920A1, “C10 Ester sustituted taxanes as antitumor agents” (Florida State University Research Foundation, Inc., priority 2001, dated 2003)

tested on: HCT116; assay: In Vitro cytotoxicity measured by the cell colony formation assay; assay type: cell-based, human; conditions: HCT116 colony formation; 72 h with drug, colonies counted after 7 days; ID50 = concentration producing 50% inhibition of colony formation; read-out: IN VITRO ID 50 HCT116
Method: Four hundred cells (HCT116) were plated in 60 mm Petri dishes containing 2.7 mL of medium (modified McCoy's 5a medium containing 10% fetal bovine serum and 100 units/mL penicillin and […] streptomycin). The cells were incubated in a CO2 incubator at 37 °C for 5 h for attachment to the bottom of Petri dishes. The compounds identified in Example 2 were made up fresh in medium at ten times the final concentration, and then 0.3 mL of this stock solution was added to the 2.7 mL of medium in the dish. The cells were then incubated with drugs for 72 h at 37 °C. At the end of incubation the drug-containing media were decanted, the dishes were rinsed with 4 mL of Hank's Balance Salt Solution (HBSS), 5 mL of fresh medium was added, and the dishes were returned to the incubator for colony formation. The cell colonies were counted using a colony counter after incubation for 7 days.

| SMILES | IC50 [nM] |
| --- | --- |
| CC=CC(=O)NC(c1cccs1)C(O)C(=O)OC1CC2(O)C(OC(=O)c3ccccc3)C3C4(OC(C)=O)COC4CC(O)C3(C)C(=O)C(OC(=O)CCC)C(=C1C)C2(C)C (centres unmarked) [Compound 3595] | < 1 |
| CC=CC(=O)OC1C(=O)C2(C)C(O)CC3OCC3(OC(C)=O)C2C(OC(=O)c2ccccc2)C2(O)CC(OC(=O)C(O)C(NC(=O)OC(C)(C)C)c3ccccn3)C(C)=C1C2(C)C (centres unmarked) [Compound 2348] | < 1 |
| CC=CC(=O)OC1C(=O)C2(C)C(O)CC3OCC3(OC(C)=O)C2C(OC(=O)c2ccccc2)C2(O)CC(OC(=O)C(O)C(C=C(C)C)NC(=O)OC(C)(C)C)C(C)=C1C2(C)C (centres unmarked) [Compound 2332] | < 1 |
| CC=CC(=O)OC1C(=O)C2(C)C(O)CC3OCC3(OC(C)=O)C2C(OC(=O)c2ccccc2)C2(O)CC(OC(=O)C(O)C(NC(=O)OC(C)(C)C)c3cccnc3)C(C)=C1C2(C)C (centres unmarked) [Compound 2353] | < 10 |
| CC=CC(=O)OC1C(=O)C2(C)C(O)CC3OCC3(OC(C)=O)C2C(OC(=O)c2ccccc2)C2(O)CC(OC(=O)C(O)C(NC(=O)OC(C)(C)C)c3ccc([N+](=O)[O-])cc3)C(C)=C1C2(C)C (centres unmarked) [Compound 2439] | < 10 |

same assay, conditions: Homo sapiens, HCT-116; read-out: IN VITRO ID 50 HCT116

| SMILES | IC50 [nM] |
| --- | --- |
| CCC(=O)O[C@H]1C(=O)[C@@]2(C)[C@H]([C@H](OC(=O)c3ccccc3)[C@]3(O)C[C@H](OC(=O)[C@H](O)[C@@H](NC(=O)C=C(C)C)c4cccs4)C(C)=C1C3(C)C)[C@]1(OC(C)=O)CO[C@@H]1C[C@@H]2O [Compound 4335] | < 1 |
| C/C=C/C(=O)N[C@@H](c1ccoc1)[C@@H](O)C(=O)O[C@H]1C[C@@]2(O)[C@@H](OC(=O)c3ccccc3)[C@@H]3[C@]4(OC(C)=O)CO[C@@H]4C[C@H](O)[C@@]3(C)C(=O)[C@H](OC(=O)CCC)C(=C1C)C2(C)C [Compound 4919] | < 1 |
| CC(=O)O[C@@]12CO[C@@H]1C[C@H](O)[C@@]1(C)C(=O)[C@H](OC(=O)c3ccco3)C3=C(C)[C@@H](OC(=O)[C@H](O)[C@@H](NC(=O)OC(C)(C)C)c4ccccn4)C[C@@](O)([C@@H](OC(=O)c4ccccc4)[C@H]21)C3(C)C [Compound 2111] | < 1 |
| CC(=O)O[C@@]12CO[C@@H]1C[C@H](O)[C@@]1(C)C(=O)[C@H](OC(=O)C3CC3)C3=C(C)[C@@H](OC(=O)[C@H](O)[C@@H](NC(=O)OC(C)(C)C)c4ccccc4)C[C@@](O)([C@@H](OC(=O)c4ccccc4)[C@H]21)C3(C)C [Compound 0882] | < 1 |
| CCC(=O)O[C@H]1C(=O)[C@@]2(C)[C@H]([C@H](OC(=O)c3ccccc3)[C@]3(O)C[C@H](OC(=O)[C@H](O)[C@@H](NC(=O)c4ccccc4)c4ccccn4)C(C)=C1C3(C)C)[C@]1(OC(C)=O)CO[C@@H]1C[C@@H]2O [Compound 0634] | < 10 |
| CCCC(=O)N[C@@H](c1cccs1)[C@@H](O)C(=O)O[C@H]1C[C@@]2(O)[C@@H](OC(=O)c3ccccc3)[C@@H]3[C@]4(OC(C)=O)CO[C@@H]4C[C@H](O)[C@@]3(C)C(=O)[C@H](OC(=O)C3CC3)C(=C1C)C2(C)C [Compound 3132] | < 1 |
| CCC(=O)O[C@H]1C(=O)[C@@]2(C)[C@H]([C@H](OC(=O)c3ccccc3)[C@]3(O)C[C@H](OC(=O)[C@H](O)[C@@H](NC(=O)OC(C)C)c4ccco4)C(C)=C1C3(C)C)[C@]1(OC(C)=O)CO[C@@H]1C[C@@H]2O [Compound 3522] | < 1 |
| CCCC(=O)O[C@H]1C(=O)[C@@]2(C)[C@H]([C@H](OC(=O)c3ccccc3)[C@]3(O)C[C@H](OC(=O)[C@H](O)[C@@H](NC(=O)OC(C)(C)C)c4ccccc4)C(C)=C1C3(C)C)[C@]1(OC(C)=O)CO[C@@H]1C[C@@H]2O [Compound 1060] | < 1 |
| CCC(=O)O[C@H]1C(=O)[C@@]2(C)[C@H]([C@H](OC(=O)c3ccccc3)[C@]3(O)C[C@H](OC(=O)[C@H](O)[C@@H](NC(=O)c4ccco4)c4cccs4)C(C)=C1C3(C)C)[C@]1(OC(C)=O)CO[C@@H]1C[C@@H]2O [Compound 3053] | < 1 |
| CCCC(=O)N[C@@H](c1ccco1)[C@@H](O)C(=O)O[C@H]1C[C@@]2(O)[C@@H](OC(=O)c3ccccc3)[C@@H]3[C@]4(OC(C)=O)CO[C@@H]4C[C@H](O)[C@@]3(C)C(=O)[C@H](OC(=O)C3CC3)C(=C1C)C2(C)C [Compound 4062] | < 1 |
| CCCC(=O)O[C@H]1C(=O)[C@@]2(C)[C@H]([C@H](OC(=O)c3ccccc3)[C@]3(O)C[C@H](OC(=O)[C@H](O)[C@@H](NC(=O)c4cccs4)c4ccco4)C(C)=C1C3(C)C)[C@]1(OC(C)=O)CO[C@@H]1C[C@@H]2O [Compound 3656] | < 1 |
| CC(=O)O[C@@]12CO[C@@H]1C[C@H](O)[C@@]1(C)C(=O)[C@H](OC(=O)c3ccco3)C3=C(C)[C@@H](OC(=O)[C@H](O)[C@@H](NC(=O)OC(C)(C)C)c4ccc([N+](=O)[O-])cc4)C[C@@](O)([C@@H](OC(=O)c4ccccc4)[C@H]21)C3(C)C [Compound 2202] | < 1 |
| CC(=O)O[C@@]12CO[C@@H]1C[C@H](O)[C@@]1(C)C(=O)[C@H](OC(=O)C3CC3)C3=C(C)[C@@H](OC(=O)[C@H](O)[C@@H](NC(=O)OC(C)(C)C)c4ccsc4)C[C@@](O)([C@@H](OC(=O)c4ccccc4)[C@H]21)C3(C)C [Compound 2794] | < 1 |
| CCC(=O)O[C@H]1C(=O)[C@@]2(C)[C@H]([C@H](OC(=O)c3ccccc3)[C@]3(O)C[C@H](OC(=O)[C@H](O)[C@@H](NC(=O)c4ccccc4)c4ccc([N+](=O)[O-])cc4)C(C)=C1C3(C)C)[C@]1(OC(C)=O)CO[C@@H]1C[C@@H]2O [Compound 0732] | < 10 |
| CCCC(=O)N[C@@H](c1ccco1)[C@@H](O)C(=O)O[C@H]1C[C@@]2(O)[C@@H](OC(=O)c3ccccc3)[C@@H]3[C@]4(OC(C)=O)CO[C@@H]4C[C@H](O)[C@@]3(C)C(=O)[C@H](OC(=O)CC)C(=C1C)C2(C)C [Compound 3219] | < 1 |
| CC(=O)O[C@@]12CO[C@@H]1C[C@H](O)[C@@]1(C)C(=O)[C@H](OC(=O)C3CC3)C3=C(C)[C@@H](OC(=O)[C@H](O)[C@@H](NC(=O)OC(C)(C)C)c4ccncc4)C[C@@](O)([C@@H](OC(=O)c4ccccc4)[C@H]21)C3(C)C [Compound 2813] | < 1 |
| CC(=O)O[C@@]12CO[C@@H]1C[C@H](O)[C@@]1(C)C(=O)[C@H](OC(=O)c3cccs3)C3=C(C)[C@@H](OC(=O)[C@H](O)[C@@H](NC(=O)OC(C)(C)C)C(C)C)C[C@@](O)([C@@H](OC(=O)c4ccccc4)[C@H]21)C3(C)C [Compound 1964] | < 10 |
| CCC(=O)O[C@H]1C(=O)[C@@]2(C)[C@H]([C@H](OC(=O)c3ccccc3)[C@]3(O)C[C@H](OC(=O)[C@H](O)[C@@H](NC(=O)OC(C)(C)C)C(C)C)C(C)=C1C3(C)C)[C@]1(OC(C)=O)CO[C@@H]1C[C@@H]2O [Compound 0583] | < 10 |
| CC(=O)O[C@@]12CO[C@@H]1C[C@H](O)[C@@]1(C)C(=O)[C@H](OC(=O)C3CC3)C3=C(C)[C@@H](OC(=O)[C@H](O)[C@@H](NC(=O)OC(C)C)c4ccco4)C[C@@](O)([C@@H](OC(=O)c4ccccc4)[C@H]21)C3(C)C [Compound 3853] | < 1 |
| CC(=O)O[C@@]12CO[C@@H]1C[C@H](O)[C@@]1(C)C(=O)[C@H](OC(=O)C=C(C)C)C3=C(C)[C@@H](OC(=O)[C@H](O)[C@H](C=C(C)C)NC(=O)OC(C)(C)C)C[C@@](O)([C@@H](OC(=O)c4ccccc4)[C@H]21)C3(C)C [Compound 2455] | < 10 |
| CC(=O)O[C@@]12CO[C@@H]1C[C@H](O)[C@@]1(C)C(=O)[C@H](OC(=O)C3CC3)C3=C(C)[C@@H](OC(=O)[C@H](O)[C@@H](NC(=O)c4cccs4)c4cccs4)C[C@@](O)([C@@H](OC(=O)c4ccccc4)[C@H]21)C3(C)C [Compound 3453] | < 1 |
